Test [1] addresses T1, RyR1 receptor (Oryctolagus cuniculus, UniProt P11716).
T1 construct: from tissue; host or cells: heavy sarcoplasmic reticulum vesicles (skeletal muscle implied)
Put plainly: Tritiated ryanodine binding assay on heavy sarcoplasmic reticulum vesicles. To be noted: 100 nM complex. On the procedure:
The heavy sarcoplasmic reticulum vesicles are prepared according to the method of Kim et al. (J. Biol. Chem., 1983, 258, 9662-9668) modified as described in Marty et al. (J. Biol. Chem., 2000, 275, 8206-8212). The protein concentration is measured by the Biuret method.
The heavy sarcoplasmic reticulum vesicles (1 mg/ml) are incubated at 37° C. for 2 hours and 30 min, in reaction buffer comprising 5 nM [^3H]-ryanodine, 150 mM NaCl, 2 mM EGTA, 2 mM Ca^2+ (pCa=5) and 20 mM Hepes, pH 7.4. Maurocalcine, the maurocalcine-derived peptides and their biotinylated derivatives are added before the addition of the heavy sarcoplasmic reticulum vesicles. The [^3H]-ryanodine bound to the heavy sarcoplasmic vesicles is measured by filtration through Whatmann GF/B filters, followed by three washes with 5 ml of ice-cold washing buffer (150 mM NaCl, 20 mM Hepes, pH 7.4). The [^3H]-ryanodine retained on the filters is measured by liquid scintillation. The nonspecific binding is measured in the presence of […] ryanodine (20 μM). The results are given in the form of means±standard deviation. Each experiment is carried out in triplicate and repeated at least twice.

For test [2], the system named is live cells. Put plainly: Flow cytometry analysis of cellular penetration at increasing extracellular KCl (membrane potential). The test is classed as cell-based. Conditions: for mean fluorescence value: 100 nM complex, 1 hour. As for the experimental part:
The MCab-Strept-Cy^5 complexes were prepared in solutions containing various NaCl/KCl ratios (composition in mM: 145 to 5 NaCl, 5 to 145 KCl, 2.5 CaCl2, 1.2 MgCl2, 10 glucose, 10 HEPES, pH 7.4).
The cells were washed twice with the NaCl/KCl solution used to prepare the complexes, and then incubated with maurocalcine and the derived peptides, which are biotinylated and complexed with streptavidin-cyanin 3 (MCab-Strept-Cy^3 complexes), at the final concentration of 100 nM in the same NaCl/KCl solution, in the dark and at ambient temperature for 1 hour. After 2 washes in the same NaCl/KCl buffer, the cyanin 3 fluorescence was analyzed on live cells, using a flow cytometer (FACScalibur, BECTON DICKINSON). The data were recorded and analyzed using appropriate software (CellQuest, BD BIOSCIENCES). The live cells were sorted according to their size and their granulosity (forward/side scattering), over a total of 10 000 events.
For orientation: In flow cytometry, cells or beads pass a laser one at a time.

Test [3] has as its system undifferentiated L6 cells. Put plainly: Penetration kinetics in live undifferentiated L6 cells, confocal microscopy. In kind it is cell-based, rat. As for the experimental part: The L6 rat myogenic cell line (clone C5, EACC) is cultured in DMEM medium supplemented with 15% fetal bovine serum (LIFE TECHNOLOGIES) and 1% penicillin-streptomycin (Invitrogen).
The live cells were incubated with maurocalcine and the derived peptides, biotinylated and complexed with streptavidin-cyanin 3, at the final concentration of 100 nM in PBS, at ambient temperature in freshly changed culture medium, on the platform of an upright microscope (Nikon Eclipse 600 FN, equipped with a water-immersion objective (×40); aperture 0.8) and a confocal head (Nikon PCM 2000), or else with a Leica TCS-SP2 microscope, equipped with an objective (×100), according to the “XYZt” mode.
The penetration kinetics of the maurocalcine and of the derived peptides, biotinylated in complex with streptavidin-Cy3, was initiated by injecting 100 nM of the complex into the culture medium. The Cy3 fluorescence was excited by means of a 543 nm wavelength of an […] laser. The light emission was filtered (595±35 nm filter). The images were recorded and analyzed using the EZ2000 software (Nikon). The quantitative analysis of the relative fluorescence was carried out on the overall signal of all the cells, using appropriate software (Leica).

Test [4] deals with HEK293 cells. In words: Cell penetration and subcellular distribution of complexes in HEK293 cells, confocal microscopy. The test is classed as cell-based, human. To be noted: for cellular distribution of complexes: 333 nM. On the procedure: Soluble streptavidin-cyanin 3 and streptavidin-cyanin 5 (Strept-Cy^3 and Strept-Cy^5, AMERSHAM) were mixed with 4 molar equivalents of biotinylated maurocalcine (1 mM) or biotinylated maurocalcine-derived peptide, in phosphate buffer (PBS, in mM: 136 NaCl, 1.47 Na2HPO4, 2.6 KCl, 1 CaCl2, 0.5 MgCl2, pH 7.2), for 2 hours at 37° C. and in the dark.
The human embryonic kidney cells (HEK 293 line, ATCC) are divided before confluence, by treatment with trypsin (1%), and are maintained in DMEM medium (INVITROGEN) containing 10% of inactivated fetal calf serum (INVITROGEN) and 1% of penicillin/streptomycin (INVITROGEN), in a CO2 incubator (5%). The culture medium is changed every 2 days.
The cells were incubated with maurocalcine and the derived peptides, biotinylated and complexed with streptavidin-cyanin 3 or with streptavidin-cyanin 5, […], in the dark and at ambient temperature, for 30 minutes to 1 hour. After 3 washes in PBS, the cells are fixed at ambient temperature, in a paraformaldehyde solution (4%), for 10 min, in the dark, washed in PBS and incubated for one hour with FITC-conjugated concanavalin (MOLECULAR PROBES, 5 μg/ml) in order to label the plasma membrane, and TO-PRO-3 iodide (MOLECULAR PROBES, 1 μM) in order to label the nucleus. In order to label the cytoskeleton, the cells were fixed and permeabilized with ice-cold methanol, for 10 min, washed twice in PBS and incubated with a mouse anti-alpha-tubulin antibody (1:1000, SIGMA), for 2 hours. After two washes in PBS, the cells were incubated for one hour with an anti-mouse IgG secondary antibody conjugated to Alexa 488 (1:1000, MOLECULAR PROBES). The cultures were then mounted in Vectashield mounting medium (VECTOR LABORATORIES). Preparations were observed by laser scanning confocal microscopy, using a Leica TCS-SP2 control system. The Alexa-488 and Cy3 or propidium iodide (PI) fluorescences were excited sequentially and then recorded. The Cy3 fluorescence was excited using a 543 nm helium-neon laser beam and the fluorescence emission was recorded between 554 nm and 625 nm. The images were introduced into Adobe Photoshop 7.0.

T1 sequence (P11716 whole entry): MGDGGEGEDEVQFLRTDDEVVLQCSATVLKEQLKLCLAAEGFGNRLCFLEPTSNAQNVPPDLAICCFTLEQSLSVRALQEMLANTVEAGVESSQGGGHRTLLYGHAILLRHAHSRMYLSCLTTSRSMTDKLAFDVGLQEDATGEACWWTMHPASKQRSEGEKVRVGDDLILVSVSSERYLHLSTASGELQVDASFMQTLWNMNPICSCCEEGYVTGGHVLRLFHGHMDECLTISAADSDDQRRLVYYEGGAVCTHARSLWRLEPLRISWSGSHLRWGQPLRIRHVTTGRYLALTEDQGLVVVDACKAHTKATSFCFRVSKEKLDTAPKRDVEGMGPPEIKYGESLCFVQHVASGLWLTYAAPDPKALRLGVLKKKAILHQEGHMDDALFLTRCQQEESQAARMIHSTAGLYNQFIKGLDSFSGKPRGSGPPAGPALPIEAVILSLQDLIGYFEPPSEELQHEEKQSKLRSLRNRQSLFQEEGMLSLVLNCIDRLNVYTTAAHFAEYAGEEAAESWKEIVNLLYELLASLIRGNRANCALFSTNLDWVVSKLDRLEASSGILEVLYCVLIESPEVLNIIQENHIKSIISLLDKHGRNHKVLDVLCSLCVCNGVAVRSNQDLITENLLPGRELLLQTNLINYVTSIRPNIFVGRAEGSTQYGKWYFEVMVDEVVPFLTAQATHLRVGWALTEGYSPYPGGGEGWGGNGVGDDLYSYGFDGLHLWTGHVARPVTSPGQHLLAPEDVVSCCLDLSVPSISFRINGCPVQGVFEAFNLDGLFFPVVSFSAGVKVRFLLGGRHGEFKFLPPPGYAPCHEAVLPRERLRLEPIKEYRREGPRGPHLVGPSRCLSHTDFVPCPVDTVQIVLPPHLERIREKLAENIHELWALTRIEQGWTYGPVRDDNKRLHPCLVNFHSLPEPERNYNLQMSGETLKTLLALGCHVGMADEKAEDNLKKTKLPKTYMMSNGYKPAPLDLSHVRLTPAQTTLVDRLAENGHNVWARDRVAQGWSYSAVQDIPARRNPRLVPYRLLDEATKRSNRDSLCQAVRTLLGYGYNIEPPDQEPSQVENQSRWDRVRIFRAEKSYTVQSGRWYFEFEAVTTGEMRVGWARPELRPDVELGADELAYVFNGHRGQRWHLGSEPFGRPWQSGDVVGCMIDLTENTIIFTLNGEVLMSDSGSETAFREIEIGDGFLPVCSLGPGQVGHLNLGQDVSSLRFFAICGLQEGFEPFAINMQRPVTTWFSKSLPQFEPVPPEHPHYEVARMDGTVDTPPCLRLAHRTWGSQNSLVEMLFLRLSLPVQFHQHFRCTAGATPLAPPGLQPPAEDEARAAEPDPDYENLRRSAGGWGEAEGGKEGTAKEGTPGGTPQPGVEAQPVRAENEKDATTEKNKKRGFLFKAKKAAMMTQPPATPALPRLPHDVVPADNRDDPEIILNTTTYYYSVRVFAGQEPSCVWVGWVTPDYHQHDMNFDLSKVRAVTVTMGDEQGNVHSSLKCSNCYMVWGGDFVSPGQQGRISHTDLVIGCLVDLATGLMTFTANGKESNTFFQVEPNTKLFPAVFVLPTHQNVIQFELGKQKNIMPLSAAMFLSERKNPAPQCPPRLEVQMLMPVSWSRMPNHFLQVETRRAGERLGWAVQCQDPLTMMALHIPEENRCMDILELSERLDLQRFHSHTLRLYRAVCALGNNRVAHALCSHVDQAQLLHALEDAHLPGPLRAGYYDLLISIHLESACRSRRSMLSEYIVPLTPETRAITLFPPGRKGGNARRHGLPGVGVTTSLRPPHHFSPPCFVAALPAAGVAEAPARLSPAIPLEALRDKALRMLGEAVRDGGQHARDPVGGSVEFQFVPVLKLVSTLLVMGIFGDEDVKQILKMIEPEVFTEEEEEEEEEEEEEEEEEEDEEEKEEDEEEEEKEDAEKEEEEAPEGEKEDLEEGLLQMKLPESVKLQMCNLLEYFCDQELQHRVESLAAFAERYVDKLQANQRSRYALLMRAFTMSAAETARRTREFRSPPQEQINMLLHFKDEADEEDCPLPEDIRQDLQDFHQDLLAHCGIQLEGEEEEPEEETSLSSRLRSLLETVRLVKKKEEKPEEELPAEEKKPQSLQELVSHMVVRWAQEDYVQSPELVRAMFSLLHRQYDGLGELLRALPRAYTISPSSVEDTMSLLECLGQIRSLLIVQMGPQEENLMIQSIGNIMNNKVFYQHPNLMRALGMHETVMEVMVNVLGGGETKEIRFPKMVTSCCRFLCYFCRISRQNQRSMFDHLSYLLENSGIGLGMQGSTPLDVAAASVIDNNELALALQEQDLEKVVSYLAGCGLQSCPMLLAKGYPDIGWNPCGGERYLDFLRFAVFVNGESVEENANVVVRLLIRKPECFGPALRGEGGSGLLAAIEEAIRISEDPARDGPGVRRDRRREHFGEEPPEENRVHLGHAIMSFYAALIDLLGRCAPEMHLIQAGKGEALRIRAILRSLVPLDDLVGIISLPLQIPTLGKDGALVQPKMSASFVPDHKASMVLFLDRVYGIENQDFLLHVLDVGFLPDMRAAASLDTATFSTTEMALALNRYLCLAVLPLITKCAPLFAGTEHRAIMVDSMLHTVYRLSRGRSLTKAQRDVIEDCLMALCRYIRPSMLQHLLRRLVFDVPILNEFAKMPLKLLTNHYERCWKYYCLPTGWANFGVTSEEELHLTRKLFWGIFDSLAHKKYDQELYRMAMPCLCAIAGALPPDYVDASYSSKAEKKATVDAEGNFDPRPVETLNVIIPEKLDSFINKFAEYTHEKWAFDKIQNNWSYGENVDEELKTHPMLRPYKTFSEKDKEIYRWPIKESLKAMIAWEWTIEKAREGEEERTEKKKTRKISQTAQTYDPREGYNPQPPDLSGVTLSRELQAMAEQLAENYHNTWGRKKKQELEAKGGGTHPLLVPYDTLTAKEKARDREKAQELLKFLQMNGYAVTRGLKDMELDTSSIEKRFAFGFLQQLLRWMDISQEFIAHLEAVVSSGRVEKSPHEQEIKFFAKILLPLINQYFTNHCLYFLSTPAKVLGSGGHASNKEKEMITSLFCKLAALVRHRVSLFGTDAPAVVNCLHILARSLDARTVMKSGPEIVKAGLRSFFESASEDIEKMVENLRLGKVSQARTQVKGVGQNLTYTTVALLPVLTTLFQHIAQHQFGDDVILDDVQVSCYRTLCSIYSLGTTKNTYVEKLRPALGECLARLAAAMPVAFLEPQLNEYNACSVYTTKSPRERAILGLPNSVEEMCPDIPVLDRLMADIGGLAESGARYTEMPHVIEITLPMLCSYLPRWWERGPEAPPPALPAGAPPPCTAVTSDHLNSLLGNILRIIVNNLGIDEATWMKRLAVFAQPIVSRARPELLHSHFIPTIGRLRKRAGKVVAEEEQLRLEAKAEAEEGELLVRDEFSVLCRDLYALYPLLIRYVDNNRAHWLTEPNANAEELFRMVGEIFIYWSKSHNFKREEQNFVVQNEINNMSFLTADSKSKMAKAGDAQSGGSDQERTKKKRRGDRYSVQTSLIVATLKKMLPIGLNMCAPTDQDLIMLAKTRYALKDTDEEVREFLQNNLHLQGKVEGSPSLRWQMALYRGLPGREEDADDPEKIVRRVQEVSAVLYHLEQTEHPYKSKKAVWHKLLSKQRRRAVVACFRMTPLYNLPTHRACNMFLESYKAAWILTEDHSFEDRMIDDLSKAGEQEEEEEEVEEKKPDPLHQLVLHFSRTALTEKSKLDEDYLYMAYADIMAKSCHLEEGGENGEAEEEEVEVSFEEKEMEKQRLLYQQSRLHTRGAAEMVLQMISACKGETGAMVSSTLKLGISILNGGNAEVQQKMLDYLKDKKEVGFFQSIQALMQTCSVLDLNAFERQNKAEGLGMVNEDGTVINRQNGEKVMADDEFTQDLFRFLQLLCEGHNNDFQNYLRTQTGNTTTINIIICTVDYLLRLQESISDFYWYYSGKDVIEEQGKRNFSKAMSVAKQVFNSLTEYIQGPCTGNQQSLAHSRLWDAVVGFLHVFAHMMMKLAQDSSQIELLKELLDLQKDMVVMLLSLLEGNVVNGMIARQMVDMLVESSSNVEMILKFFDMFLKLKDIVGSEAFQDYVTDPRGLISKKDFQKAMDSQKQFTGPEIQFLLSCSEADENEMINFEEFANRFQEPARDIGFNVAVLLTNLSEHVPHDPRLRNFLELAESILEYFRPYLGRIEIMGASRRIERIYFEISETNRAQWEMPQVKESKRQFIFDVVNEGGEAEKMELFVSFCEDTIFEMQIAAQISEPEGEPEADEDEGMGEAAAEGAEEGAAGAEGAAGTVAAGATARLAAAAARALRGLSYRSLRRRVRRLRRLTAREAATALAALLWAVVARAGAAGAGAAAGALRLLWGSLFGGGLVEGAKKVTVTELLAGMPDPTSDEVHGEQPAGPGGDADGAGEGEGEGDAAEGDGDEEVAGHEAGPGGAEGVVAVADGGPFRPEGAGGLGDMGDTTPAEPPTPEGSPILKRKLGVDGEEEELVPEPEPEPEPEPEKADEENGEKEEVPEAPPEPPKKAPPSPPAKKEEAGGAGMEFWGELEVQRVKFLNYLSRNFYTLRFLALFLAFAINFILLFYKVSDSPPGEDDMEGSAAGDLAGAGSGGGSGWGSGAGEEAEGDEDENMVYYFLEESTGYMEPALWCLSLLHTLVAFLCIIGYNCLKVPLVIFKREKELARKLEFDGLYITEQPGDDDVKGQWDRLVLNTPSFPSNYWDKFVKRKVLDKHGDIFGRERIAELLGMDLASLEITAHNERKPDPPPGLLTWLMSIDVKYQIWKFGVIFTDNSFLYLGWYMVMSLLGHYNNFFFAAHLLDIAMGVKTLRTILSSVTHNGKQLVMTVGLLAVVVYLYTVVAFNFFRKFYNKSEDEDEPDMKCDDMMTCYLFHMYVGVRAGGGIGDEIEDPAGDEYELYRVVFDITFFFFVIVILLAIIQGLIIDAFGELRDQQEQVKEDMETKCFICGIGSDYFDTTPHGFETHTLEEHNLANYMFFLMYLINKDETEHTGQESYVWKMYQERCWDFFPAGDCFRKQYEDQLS

For “MCab/Strept-Cy3: biotinylated maurocalcine, complexed with cyanin-3-labeled streptavidin”, the “stimulation of [3H]-ryanodine binding to heavy sarcoplasmic reticulum vesicles” value in test [1] is “conserve the ability to stimulate [^3H]-ryanodine binding”. Besides, the values for the mean fluorescence value in test [2] (5 mM KCl), in test [2] (125 mM KCl) and in test [2] (145 mM KCl) were 145, 40 and 17, respectively. Also, the “decreasing slope a (linear regression of fluorescence vs KCl concentration)” value in test [2] (fit y=y0+a×x) was −0.72. In test [2] (fit y=y0+a×x), the “maximum fluorescence y0 (linear regression vs KCl concentration)” value was 139.5. In addition, the “time of fluorescence peak in the plasma membrane (ROI-1)” value in test [3] (100 nM) is on record as 10 min. Besides, the “time at which labeling appears after addition” value in test [3] (100 nM in extracellular medium) is listed as 3 min. Besides, in test [4] (100 nM, 1 h, 4° C.), the “entry into cells at decreased temperature” value is “still penetrate into the cells”. In test [4] (100 nM, 1 h, amiloride 3 mM), the “effect of amiloride on entry of the complex” value was “no effect on the entry of the complex into the cells”. In addition, in test [4] (100 nM, 1 h, nystatin 50 μM), the “effect of nystatin on entry of the complex” value was “no effect on the entry of the complex into the cells”. The “cellular distribution of complexes” value was “mainly present in the cytoplasm” in test [4] (2 hours of incubation); “mainly perinuclear and colocalizes with the nucleus” in test [4] (between 4 hours and 24 hours of incubation).

The values above are taken from patent US8207293B2, “Peptides derived from maurocalcine used as vectors for intracellular addressing of molecules of interest” (Commissariat a l'Energie Atomique, priority 2004, dated 2012).
